Calls of active or inactive are those of the source. No cut-off for these calls is given here.

Data set [1] is described as follows: Cytotoxicity against Sprague-Dawley rat cardiac fibroblast incubated for 24 hrs by MTT assay. It counts as toxicity, cell-based, Fibroblast of cardiac tissue. To be noted: cardiac fibroblasts. (In general: Tetrazolium assays rely on reduction of a dye to a coloured formazan, in cell work by metabolically active cells.)
A short description of data set [2]: Toxicity in 24 hr starved C57BL/6 mouse assessed as pathological change in heart at 2 g/Kg administered via gavage measured after 2 weeks by H and E staining based histopathological analysis. It counts as tissue-based. To be noted: in vivo, po, 2000 mg/kg.
Data set [3] deals with Fibroblast of cardiac tissue. As to the kind of experiment: Antifibrotic effect in SD rat cardiac fibroblast transfected with DCN1 siRNA assessed as effect on collagen I expression at 1 uM preincubated for 2 hrs followed by Ang II-stimulation and further incubated for 24 hrs by western blot analysis. It counts as functional, cell-based. To be noted: time 26.0 hrs.
Data set [4] relates to Fibroblast of cardiac tissue. As to the kind of experiment: Effect on Ang II-induced in Cul4A neddylation in mouse cardiac fibroblast at 1 uM preincubated for 2 hrs followed by Ang-II stimulation and further incubated for 24 hrs by western blot analysis. It counts as functional, cell-based. To be noted: time 26.0 hrs.
Data set [5] relates to Fibroblast of cardiac tissue. As to the kind of experiment: Inhibition of differentiation of Ang II-induced mouse cardiac fibroblast to myofibroblast assessed as decrease in alpha-SMA expression levels at 1 uM preincubated for 2 hrs followed by Ang-II stimulation and further incubated for 24 hrs by immunofluorescence assay. It counts as functional, cell-based. To be noted: time 26.0 hrs.

In a further data set the target is DCN1-like protein 1 (Homo sapiens, UniProt Q96GG9). As to the kind of experiment: Binding affinity to […] DCN1 (unknown origin) assessed as dissociation constant incubated for upto 180 secs by label-free biolayer interferometry assay. (Biolayer interferometry detects binding as a change in optical thickness at a sensor tip.)
For a further data set, the target named is T1, DCN1-like protein 5 (Homo sapiens, UniProt Q9BTE7).
T1 sequence (Q9BTE7 whole entry): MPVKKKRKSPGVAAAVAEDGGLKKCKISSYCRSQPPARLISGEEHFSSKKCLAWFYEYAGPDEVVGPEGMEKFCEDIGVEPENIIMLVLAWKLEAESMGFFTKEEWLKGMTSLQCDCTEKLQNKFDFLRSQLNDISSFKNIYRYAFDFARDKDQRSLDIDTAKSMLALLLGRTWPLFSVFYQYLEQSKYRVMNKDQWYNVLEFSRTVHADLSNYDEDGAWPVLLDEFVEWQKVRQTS
In words: Binding affinity to DCN5 (unknown origin) assessed as inhibitory constant.

In data set [6] the test system is Fibroblast of cardiac tissue. As to the kind of experiment: Reversal of Ang II-induced decrease in Nrf2 secretion in mouse cardiac fibroblast at 1 uM preincubated for 2 hrs followed by Ang-II stimulation and further incubated for 24 hrs by western blot analysis. Format: functional, cell-based. To be noted: time 26.0 hrs.
Data set [7] in a line: Cytotoxicity against Sprague-Dawley rat cardiac fibroblast by MTT assay. Format: toxicity, cell-based, Fibroblast of cardiac tissue. To be noted: cardiac fibroblasts.
Data set [8] can be described thus: Toxicity in 24 hr starved C57BL/6 mouse assessed as pathological change in liver at 2 g/Kg administered via gavage measured after 2 weeks by H and E staining based histopathological analysis. Format: tissue-based. To be noted: in vivo, po, 2000 mg/kg.
Data set [9] is described as follows: Toxicity in 24 hr starved C57BL/6 mouse assessed as change in body weight at 2 g/Kg administered via gavage measured upto 2 weeks. To be noted: in vivo, po, 2000 mg/kg.
Data set [10] relates to Fibroblast of cardiac tissue. As to the kind of experiment: Antifibrotic effect in SD rat cardiac fibroblast assessed as reduction in Ang II-induced activation of Nrf2 signaling pathway preincubated for 2 hrs followed by Ang II-stimulation and further incubated for 24 hrs by western blot analysis (reference value: 43 %). It counts as functional. To be noted: time 26 hrs.

The test system of data set [11] is Fibroblast of cardiac tissue. As to the kind of experiment: Antifibrotic effect in SD rat cardiac fibroblast assessed as reduction in Ang II-induced collagen I upregulation preincubated for 2 hrs followed by Ang II-stimulation and further incubated for 24 hrs by western blot analysis (reference value: 71 %). It counts as functional. To be noted: time 26 hrs. Background: In western blotting, separated proteins are transferred to a membrane and probed.

For data set [12], the system named is Fibroblast of cardiac tissue. In words: Effect on Ang II-induced in Cul5 neddylation in mouse cardiac fibroblast at 1 uM preincubated for 2 hrs followed by Ang-II stimulation and further incubated for 24 hrs by western blot analysis. It counts as functional, cell-based. To be noted: time 26.0 hrs.
For the next data set, the species on record is Homo sapiens. In words: Inhibition of NEDD8-UBC12 (unknown origin) interaction in presence of ATP at 100 uM by densitometry. To be noted: time 10.0 min.
Data set [13] in a line: Toxicity in 24 hr starved C57BL/6 mouse assessed as animal survival at 2 g/Kg administered via gavage measured upto 2 weeks. To be noted: in vivo, po, 2000 mg/kg.
Data set [14] can be described thus: Toxicity in 24 hr starved C57BL/6 mouse assessed as pathological change in lungs at 2 g/Kg administered via gavage measured after 2 weeks by H and E staining based histopathological analysis. To be noted: in vivo, po, 2000 mg/kg.

Chain of DCN1-like protein 1 (Q96GG9 whole entry): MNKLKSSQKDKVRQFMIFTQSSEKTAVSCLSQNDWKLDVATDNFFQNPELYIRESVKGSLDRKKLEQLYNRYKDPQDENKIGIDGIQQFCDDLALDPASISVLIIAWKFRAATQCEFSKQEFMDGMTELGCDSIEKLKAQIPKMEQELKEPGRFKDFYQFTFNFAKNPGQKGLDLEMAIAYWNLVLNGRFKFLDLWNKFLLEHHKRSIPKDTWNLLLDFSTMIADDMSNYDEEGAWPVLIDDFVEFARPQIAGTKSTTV

Regarding `COc1cc(-c2nc(SCc3ccc(Cl)cc3)nc(Sc3nnnn3C)c2C#N)cc(OC)c1OC`, in data set [1], the midpoint of inhibition, the IC50 at 24 h, lay at 27.3 µM. Besides, the Activity entry in data set [2], in data set [8], in [9], in data set [13] and in data set [14] was “Non-Toxic” each time. Moreover, the inhibition result (in data set [3]; in the data set filed under Homo sapiens) was “inactive” throughout. The outcome in data set [4], in data set [6] and in data set [12] was Active. The inhibition entry in [5] was “Active”. At DCN1-like protein 1, the Kd worked out at 0.026 µM. Also, the Ki at DCN1-like protein 5 was found to be 28.9 µM. For the same molecule, in data set [7], 27.3 µM corresponded to half-maximal inhibition (IC50). In addition, the “inhibition (INH)” value is given as 37% in [10] and 33% in [11].

Usually IC50 stands for the midpoint of a concentration-inhibition curve. Higher therefore signals weaker potency in that assay. A word on the Kd: it is the concentration at which binding is half-saturated. Usually Ki stands for the equilibrium dissociation constant of an inhibitor or competing ligand from its target.

The record behind these values is ChEMBL document CHEMBL5042502, “Discovery of Potent and Selective 2-(Benzylthio)pyrimidine-based DCN1-UBC12 Inhibitors for Anticardiac Fibrotic Effects” (J Med Chem, 2022).
